{"source": "patent US20240238787A1", "about": "“PLATE ASSAY DEVICE AND METHOD FOR IN SITU IMAGING” (Duke University, priority 2023, published 2024)", "key": {"[1]": {"tested_on": "P. aeruginosa PA14 biofilm", "test": "antibiotic challenge of biofilm on ziggurat peg lid (modified ASTM E2799-22), OD 600 reading and CFU count after sonication", "assay_type": "cell-based, Pseudomonas aeruginosa PA14", "settings": "peg 110, vs no antibiotic; for reduction in CFU on a per area basis: 24 h challenge; for OD600 mean reduction: biofilm recovered in PBS by sonication", "method": "The applicability lid having pegs 110 with a ziggurat shape was evaluated to the relevant ATSM standard, E2799-22, modified workflow FIG. 6. Specifically, the pegs 110 were inoculated in a 24-well plate with media at step 300 and incubated at step 304. At step 308, the pegs 110 were then challenged with antibiotics and then incubated again at step 312. At step 316, the pegs were washed or rinsed and, at step 320, placed in PBS for imaging. The pegs 110 were sonicated, at step 324, to remove attached biofilm, which was quantified using OD 600 reading, at step 328, and a CFU count, at step 332. Importantly, the lid 100 could be handled in the same fashion as the commercially available peg lid. The pegs 110 were less rigidly attached to the lid 100 than the commercially available peg lid and could be broken off easily for a biofilm growth check, although due to the ring of biofilm at the air-medium interface typical of wild-type PA14, this could also be verified visually. Due to the design, it was also possible to image in situ. With respect to FIGS. 7A-7D, after imaging, OD 600 and CFU counts were performed to verify no loss of function between the lid 100 optimized for imaging and the commercially available peg lid. Specifically, the raw data and mean difference versus no antibiotics are shown for 100 μg/mL tetracycline, 10 μg/mL tetracycline on an OD 600 basis on the MBEC® Assay (FIG. 7A), the modified plate (FIG. 7B), and on a CFU/mm2 for PA14 (FIG. 7C). […] PA14 was grown on pegs in TSB for 24 hours before recovery. Wells were categorized as “inside” (e.g., those on the dash-dot line) or “outside” (e.g., those on the dashed line) according to the layout in FIG. 9B. The mean differences was plotted using bootstrap sampling distributions and 95% confidence interval is indicated by the ends of the vertical error bars using EstimationStats.\nExperiments were conducted using Pseudomonas aeruginosa PA14, which constitutively expressed GFP. Cultures were grown over-night in tryptic soy broth (VWR International, USA) at 37° C. and 150 rpm. 10 μL of the overnight culture was used to inoculate 50 mL of fresh TSB. The growth plate (24 well, VWR International, USA) was prepared by dispensing […] of broth per well, adding the peg lid 100, and incubating for 24 h at 37° C. and 100 rpm. […]\nTransfers between media and rinse plates were accomplished by lifting the peg lid 100, allowing excess liquid to drip off, and gently placing the lid 100 in the new plate. […] The efficacy of removal from the surface by sonication as not tested, however the resultant OD600 readings for P. aeruginosabetween this and the MBEC® assay were similar […]"}, "[2]": {"tested_on": "P. aeruginosa PA14 biofilm streamers", "test": "in situ confocal laser scanning microscopy of biofilm and biofilm streamers on ziggurat peg after antibiotic challenge", "assay_type": "cell-based, Pseudomonas aeruginosa PA14", "settings": "10 μg/mL", "source_text": "The intent of this peg 110 is to optimize for in situ confocal imaging. Two imaging techniques were applied to evaluate this. With respect to FIG. 8B, the surface 128i of the distal-most portion 128i of the peg 110 was captured using a tile and z-stack approach. The biomass formed on the edges of the peg 110 and, in the “no antibiotic” samples, could be thick enough to scatter the fluorescent light emission. FIG. 8B illustrates selected 3D tiles of the surface of the surface 128i of the peg 110 with an area of 8.042 mm2. This is known to leave imaging artifacts resembling “holes” in the images observed in FIG. 8B (e.g., “No antibiotic”). Streamers, are often formed in this area. […] With respect to FIGS. 8A and 8C, the surface biomass on the second end 116 analyzed using COMSTAT 2.1 was plotted using EstimationStats. With respect to FIGS. 8D and 8F, the biomass on the second step 128h of the step analyzed using COMSTAT 2.1 was plotted using EstimationStats. […]\nPegs 110, 150, 160, 170, 180, 190 were imaged in PBS with an inverted Zeiss LSM 900 (Zeiss, Germany) using a 488 nm laser for excitation and detection wavelengths of […] (green) for GFP and 590-700 nm (red) for identifying autofluorescence. […] Biomass quantification of antibiotic plate images was performed using Comstat2 v2.1 as an ImageJ plugin. […]"}}, "data": [{"compound": "CN(C)[C@@H]1C(O)=C(C(N)=O)C(=O)[C@@]2(O)C(O)=C3C(=O)c4c(O)cccc4[C@@](C)(O)[C@H]3C[C@@H]12", "note": "[tetracycline]", "values": [{"measurement": "reduction in CFU on a per area basis", "setting": "[1]; 10 μg/mL tetracycline", "result": 0, "unit": "fold"}, {"measurement": "OD600 mean reduction", "setting": "[1]; 10 μg/mL tetracycline", "result": 0.02}, {"measurement": "reduction in CFU on a per area basis", "setting": "[1]; 100 μg/mL tetracycline", "result": 3, "unit": "fold"}, {"measurement": "OD600 mean reduction", "setting": "[1]; 100 μg/mL tetracycline", "result": 0.03}, {"measurement": "streamer midpoint diameter as % of the no antibiotic streamer", "setting": "[2]; no antibiotic streamer 309.09±10.43 μm", "result": 12.96, "unit": "%"}, {"measurement": "approximate midpoint diameter of biofilm streamer", "setting": "[2]; streamer between surface 128i and step 128h, FIG. 8E", "result": "~40.05±11.98", "unit": "μm"}]}]}
